Consider 14 molecules from ChEMBL document CHEMBL5291721, “A preclinical secondary pharmacology resource illuminates target-adverse drug reaction associations of marketed drugs” (Nat Commun, 2023).

Usually AC50 stands for the concentration at which the activity in the assay is half-maximal.

The target of assay [1] is T1, 5-hydroxytryptamine receptor 3A (Homo sapiens, UniProt P46098).
T1 sequence (P46098 whole entry): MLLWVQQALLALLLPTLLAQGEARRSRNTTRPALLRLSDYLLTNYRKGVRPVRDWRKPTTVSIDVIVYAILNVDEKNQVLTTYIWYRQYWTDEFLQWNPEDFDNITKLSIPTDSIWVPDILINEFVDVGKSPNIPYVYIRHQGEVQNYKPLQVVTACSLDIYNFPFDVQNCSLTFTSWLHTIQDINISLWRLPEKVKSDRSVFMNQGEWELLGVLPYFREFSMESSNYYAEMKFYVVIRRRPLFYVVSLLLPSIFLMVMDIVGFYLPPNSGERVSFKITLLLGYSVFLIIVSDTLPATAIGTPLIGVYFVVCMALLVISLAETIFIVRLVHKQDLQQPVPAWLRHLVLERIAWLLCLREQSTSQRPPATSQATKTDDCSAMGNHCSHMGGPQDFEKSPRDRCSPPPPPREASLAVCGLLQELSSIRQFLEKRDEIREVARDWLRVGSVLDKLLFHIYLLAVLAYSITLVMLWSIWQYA
Format: functional.

The target of assay [2] is T2, Neuropeptide Y receptor type 1 (Homo sapiens, UniProt P25929).
T2 sequence (P25929 whole entry): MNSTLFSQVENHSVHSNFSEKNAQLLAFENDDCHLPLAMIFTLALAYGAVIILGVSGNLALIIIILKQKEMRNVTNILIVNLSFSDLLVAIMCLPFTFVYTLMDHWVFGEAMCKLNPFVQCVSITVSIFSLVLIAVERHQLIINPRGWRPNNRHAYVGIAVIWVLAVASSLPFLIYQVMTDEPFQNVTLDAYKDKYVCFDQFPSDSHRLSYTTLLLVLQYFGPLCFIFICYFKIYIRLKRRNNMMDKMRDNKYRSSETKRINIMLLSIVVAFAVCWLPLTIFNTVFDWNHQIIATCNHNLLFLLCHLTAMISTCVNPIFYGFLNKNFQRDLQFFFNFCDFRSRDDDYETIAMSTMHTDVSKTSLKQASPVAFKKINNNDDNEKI

The target in assay [3] is Voltage-dependent L-type calcium channel subunit alpha-1C (Rattus norvegicus, UniProt P22002). Format: functional.
The target in assay [4] is T3, Muscarinic acetylcholine receptor M2 (Homo sapiens, UniProt P08172).
T3 sequence (P08172 whole entry): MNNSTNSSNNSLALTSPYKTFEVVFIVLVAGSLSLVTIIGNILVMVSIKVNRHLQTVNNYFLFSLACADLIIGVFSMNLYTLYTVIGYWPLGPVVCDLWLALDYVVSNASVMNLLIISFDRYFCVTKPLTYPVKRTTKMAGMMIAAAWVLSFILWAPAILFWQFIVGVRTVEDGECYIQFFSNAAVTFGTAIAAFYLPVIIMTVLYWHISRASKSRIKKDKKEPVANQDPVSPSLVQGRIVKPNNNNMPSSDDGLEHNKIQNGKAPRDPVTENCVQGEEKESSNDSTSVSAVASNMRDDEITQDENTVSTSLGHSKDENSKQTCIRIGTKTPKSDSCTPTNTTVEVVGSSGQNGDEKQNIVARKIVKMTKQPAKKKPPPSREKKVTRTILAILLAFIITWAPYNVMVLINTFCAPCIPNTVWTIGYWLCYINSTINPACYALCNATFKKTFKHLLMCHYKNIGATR
Format: functional, cell-based.

The target in assay [5] is T4, Prostaglandin G/H synthase 1 (Rattus norvegicus, UniProt Q63921).
T4 sequence (Q63921 whole entry): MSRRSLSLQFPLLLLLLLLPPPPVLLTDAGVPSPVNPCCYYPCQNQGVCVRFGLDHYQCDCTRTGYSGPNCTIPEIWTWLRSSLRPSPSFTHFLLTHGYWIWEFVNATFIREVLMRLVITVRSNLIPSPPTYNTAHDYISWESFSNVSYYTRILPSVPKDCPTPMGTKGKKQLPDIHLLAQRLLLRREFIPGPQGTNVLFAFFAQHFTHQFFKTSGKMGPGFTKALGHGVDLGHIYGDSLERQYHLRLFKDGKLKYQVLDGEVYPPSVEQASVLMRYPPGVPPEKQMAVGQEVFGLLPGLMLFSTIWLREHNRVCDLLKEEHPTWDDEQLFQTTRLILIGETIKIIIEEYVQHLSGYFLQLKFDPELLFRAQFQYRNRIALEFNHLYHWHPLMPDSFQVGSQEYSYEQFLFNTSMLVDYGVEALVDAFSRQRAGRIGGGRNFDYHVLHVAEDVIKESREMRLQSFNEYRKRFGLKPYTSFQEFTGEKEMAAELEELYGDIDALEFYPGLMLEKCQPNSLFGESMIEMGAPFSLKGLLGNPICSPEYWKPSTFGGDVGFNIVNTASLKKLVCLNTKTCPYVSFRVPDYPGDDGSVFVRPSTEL
Format: functional.

The target in assay [6] is Sodium-dependent noradrenaline transporter (Homo sapiens, UniProt P23975).
The target in assay [7] is T5, 5-hydroxytryptamine receptor 1A (Homo sapiens, UniProt P08908).
T5 sequence (P08908 whole entry): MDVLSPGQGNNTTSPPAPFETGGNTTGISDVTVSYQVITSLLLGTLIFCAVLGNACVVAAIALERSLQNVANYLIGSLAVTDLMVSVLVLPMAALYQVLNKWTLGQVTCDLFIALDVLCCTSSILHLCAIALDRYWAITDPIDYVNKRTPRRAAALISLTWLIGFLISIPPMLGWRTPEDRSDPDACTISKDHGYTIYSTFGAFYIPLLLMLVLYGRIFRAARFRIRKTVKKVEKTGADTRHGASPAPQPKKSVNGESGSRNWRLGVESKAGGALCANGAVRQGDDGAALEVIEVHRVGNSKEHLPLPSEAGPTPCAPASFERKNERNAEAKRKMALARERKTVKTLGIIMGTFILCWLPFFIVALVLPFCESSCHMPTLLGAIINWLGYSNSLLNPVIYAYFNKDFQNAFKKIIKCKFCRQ
It counts as functional, cell-based.

The target of assay [8] is Kappa-type opioid receptor (Homo sapiens, UniProt P41145).
In assay [9] the target is cGMP-inhibited 3',5'-cyclic phosphodiesterase 3A (Homo sapiens, UniProt Q14432). It counts as functional.
Assay [10] concerns the target 5-hydroxytryptamine receptor 2B (Homo sapiens, UniProt P41595). It counts as functional, cell-based.
Further: assay procedure not described here.

Sequence of Sodium-dependent noradrenaline transporter (P23975 whole entry): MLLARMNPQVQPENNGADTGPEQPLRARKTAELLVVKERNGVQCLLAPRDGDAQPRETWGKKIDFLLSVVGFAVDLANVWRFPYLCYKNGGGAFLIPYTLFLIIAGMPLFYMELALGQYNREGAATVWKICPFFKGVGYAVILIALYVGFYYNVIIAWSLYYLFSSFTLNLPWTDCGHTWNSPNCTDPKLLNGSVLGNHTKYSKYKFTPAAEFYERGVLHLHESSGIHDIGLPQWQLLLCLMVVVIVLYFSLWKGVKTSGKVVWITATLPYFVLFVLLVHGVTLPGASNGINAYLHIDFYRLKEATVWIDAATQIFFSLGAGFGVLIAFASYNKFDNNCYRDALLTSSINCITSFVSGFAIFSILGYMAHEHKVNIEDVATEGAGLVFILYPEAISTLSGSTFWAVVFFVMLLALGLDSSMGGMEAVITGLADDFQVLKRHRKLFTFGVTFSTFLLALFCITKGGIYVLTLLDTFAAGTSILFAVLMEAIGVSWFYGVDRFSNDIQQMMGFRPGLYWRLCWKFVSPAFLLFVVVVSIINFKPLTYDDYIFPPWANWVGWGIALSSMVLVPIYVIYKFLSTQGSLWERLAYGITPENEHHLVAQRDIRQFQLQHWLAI
Sequence of cGMP-inhibited 3',5'-cyclic phosphodiesterase 3A (Q14432 whole entry): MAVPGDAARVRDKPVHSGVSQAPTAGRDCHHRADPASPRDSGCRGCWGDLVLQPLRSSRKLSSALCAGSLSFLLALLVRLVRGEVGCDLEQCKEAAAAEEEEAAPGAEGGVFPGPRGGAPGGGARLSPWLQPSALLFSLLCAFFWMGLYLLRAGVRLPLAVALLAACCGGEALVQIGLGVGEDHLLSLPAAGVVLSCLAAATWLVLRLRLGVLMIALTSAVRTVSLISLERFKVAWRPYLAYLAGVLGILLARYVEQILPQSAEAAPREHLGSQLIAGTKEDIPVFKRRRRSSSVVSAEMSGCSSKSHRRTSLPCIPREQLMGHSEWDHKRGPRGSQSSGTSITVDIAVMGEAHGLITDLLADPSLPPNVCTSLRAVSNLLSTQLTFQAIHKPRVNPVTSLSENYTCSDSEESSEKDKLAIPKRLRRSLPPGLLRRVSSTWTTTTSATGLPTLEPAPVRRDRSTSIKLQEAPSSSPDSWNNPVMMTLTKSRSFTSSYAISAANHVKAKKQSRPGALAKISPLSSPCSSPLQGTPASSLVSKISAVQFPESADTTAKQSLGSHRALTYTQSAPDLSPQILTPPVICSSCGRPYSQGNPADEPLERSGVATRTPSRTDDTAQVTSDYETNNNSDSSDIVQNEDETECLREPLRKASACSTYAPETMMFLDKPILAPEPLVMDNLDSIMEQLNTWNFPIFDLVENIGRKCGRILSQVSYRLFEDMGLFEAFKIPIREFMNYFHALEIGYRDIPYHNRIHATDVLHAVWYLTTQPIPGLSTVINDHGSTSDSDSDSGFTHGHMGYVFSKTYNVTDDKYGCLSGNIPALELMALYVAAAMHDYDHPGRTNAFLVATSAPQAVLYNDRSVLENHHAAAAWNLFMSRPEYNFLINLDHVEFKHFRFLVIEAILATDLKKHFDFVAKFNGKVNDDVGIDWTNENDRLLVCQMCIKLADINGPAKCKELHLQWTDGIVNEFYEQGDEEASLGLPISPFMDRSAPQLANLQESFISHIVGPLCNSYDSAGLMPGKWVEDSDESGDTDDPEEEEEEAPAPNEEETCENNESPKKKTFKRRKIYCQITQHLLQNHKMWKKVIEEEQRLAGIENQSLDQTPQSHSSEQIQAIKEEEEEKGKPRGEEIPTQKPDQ
Sequence of Kappa-type opioid receptor (P41145 whole entry): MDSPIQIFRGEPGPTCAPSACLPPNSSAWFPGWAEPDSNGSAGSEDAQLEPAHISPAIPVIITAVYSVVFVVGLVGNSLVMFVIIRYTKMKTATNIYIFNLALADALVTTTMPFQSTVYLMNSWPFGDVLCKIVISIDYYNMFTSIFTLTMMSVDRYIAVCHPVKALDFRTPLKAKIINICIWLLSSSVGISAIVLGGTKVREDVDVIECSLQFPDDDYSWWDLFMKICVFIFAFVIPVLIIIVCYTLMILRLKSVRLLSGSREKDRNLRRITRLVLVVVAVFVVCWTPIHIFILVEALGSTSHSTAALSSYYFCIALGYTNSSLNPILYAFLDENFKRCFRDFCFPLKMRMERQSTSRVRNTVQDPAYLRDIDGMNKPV
Sequence of Voltage-dependent L-type calcium channel subunit alpha-1C (P22002 whole entry): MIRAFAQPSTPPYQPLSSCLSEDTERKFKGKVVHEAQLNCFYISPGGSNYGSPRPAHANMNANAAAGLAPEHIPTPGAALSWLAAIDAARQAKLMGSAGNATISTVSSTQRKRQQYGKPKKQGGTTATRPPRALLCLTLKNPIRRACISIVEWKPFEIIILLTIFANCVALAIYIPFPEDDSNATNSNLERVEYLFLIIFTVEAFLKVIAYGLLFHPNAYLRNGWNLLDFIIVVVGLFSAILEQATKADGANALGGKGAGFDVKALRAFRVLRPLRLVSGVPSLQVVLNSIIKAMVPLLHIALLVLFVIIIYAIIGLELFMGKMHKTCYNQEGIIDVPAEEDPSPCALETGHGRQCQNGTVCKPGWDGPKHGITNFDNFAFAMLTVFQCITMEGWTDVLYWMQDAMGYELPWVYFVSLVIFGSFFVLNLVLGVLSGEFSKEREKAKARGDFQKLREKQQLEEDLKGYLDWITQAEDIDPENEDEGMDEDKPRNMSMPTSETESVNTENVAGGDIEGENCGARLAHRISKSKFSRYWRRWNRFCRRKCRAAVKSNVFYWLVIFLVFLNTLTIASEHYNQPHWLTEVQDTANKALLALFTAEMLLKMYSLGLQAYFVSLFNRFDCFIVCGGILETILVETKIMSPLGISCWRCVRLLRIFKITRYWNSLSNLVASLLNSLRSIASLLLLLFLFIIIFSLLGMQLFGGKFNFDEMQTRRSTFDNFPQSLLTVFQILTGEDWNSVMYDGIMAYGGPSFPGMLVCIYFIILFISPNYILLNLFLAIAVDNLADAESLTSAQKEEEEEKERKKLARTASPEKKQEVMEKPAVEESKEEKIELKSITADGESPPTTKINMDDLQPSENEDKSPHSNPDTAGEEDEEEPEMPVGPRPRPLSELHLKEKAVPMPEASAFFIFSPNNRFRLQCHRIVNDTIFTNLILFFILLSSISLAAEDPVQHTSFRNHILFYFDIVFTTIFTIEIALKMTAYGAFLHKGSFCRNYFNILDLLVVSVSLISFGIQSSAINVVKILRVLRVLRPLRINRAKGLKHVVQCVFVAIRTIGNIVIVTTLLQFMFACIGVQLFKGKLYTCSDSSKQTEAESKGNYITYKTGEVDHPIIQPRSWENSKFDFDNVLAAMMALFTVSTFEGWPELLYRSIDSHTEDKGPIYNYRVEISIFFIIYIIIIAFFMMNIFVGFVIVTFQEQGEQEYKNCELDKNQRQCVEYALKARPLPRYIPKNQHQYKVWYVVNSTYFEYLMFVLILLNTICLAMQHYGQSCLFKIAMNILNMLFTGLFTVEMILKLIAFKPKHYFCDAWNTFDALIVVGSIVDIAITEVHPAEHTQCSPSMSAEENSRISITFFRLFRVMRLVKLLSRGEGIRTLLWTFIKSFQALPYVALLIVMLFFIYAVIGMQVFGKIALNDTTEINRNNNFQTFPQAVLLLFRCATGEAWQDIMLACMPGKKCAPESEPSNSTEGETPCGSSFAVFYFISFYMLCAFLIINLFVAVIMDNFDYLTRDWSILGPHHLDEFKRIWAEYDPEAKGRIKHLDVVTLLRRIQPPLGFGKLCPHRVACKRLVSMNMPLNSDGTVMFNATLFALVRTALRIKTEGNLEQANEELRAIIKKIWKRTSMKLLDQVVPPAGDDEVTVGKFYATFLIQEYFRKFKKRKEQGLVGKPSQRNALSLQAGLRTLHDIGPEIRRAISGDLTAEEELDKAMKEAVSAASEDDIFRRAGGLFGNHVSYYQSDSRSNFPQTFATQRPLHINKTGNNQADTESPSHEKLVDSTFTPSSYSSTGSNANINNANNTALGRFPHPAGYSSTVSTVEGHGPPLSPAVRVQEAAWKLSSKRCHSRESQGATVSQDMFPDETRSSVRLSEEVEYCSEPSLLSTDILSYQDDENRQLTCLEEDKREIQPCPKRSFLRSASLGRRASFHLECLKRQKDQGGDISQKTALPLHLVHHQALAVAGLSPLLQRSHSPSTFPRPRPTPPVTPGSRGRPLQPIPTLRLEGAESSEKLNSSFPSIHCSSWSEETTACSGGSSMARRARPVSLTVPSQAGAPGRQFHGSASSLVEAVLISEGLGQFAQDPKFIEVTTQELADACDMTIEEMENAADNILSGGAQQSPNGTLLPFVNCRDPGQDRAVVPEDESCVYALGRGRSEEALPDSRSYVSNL
Sequence of 5-hydroxytryptamine receptor 2B (P41595 whole entry): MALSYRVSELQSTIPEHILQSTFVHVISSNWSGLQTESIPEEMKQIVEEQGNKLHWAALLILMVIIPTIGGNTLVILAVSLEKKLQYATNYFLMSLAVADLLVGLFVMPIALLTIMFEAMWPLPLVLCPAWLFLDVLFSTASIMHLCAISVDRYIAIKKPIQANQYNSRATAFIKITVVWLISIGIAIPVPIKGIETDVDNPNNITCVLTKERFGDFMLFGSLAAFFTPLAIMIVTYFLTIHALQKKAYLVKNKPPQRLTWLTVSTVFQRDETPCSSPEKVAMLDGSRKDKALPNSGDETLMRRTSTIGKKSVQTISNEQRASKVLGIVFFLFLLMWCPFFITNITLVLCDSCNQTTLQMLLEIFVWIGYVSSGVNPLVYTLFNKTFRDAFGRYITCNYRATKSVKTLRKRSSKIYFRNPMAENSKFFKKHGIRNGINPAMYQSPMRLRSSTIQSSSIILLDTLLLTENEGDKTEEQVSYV

Consider `N#Cc1ccccc1-c1cc(-c2ccccn2)cn(-c2ccccc2)c1=O`, for which the AC50 in assay [1], in assay [2], in assay [3], in [4], in assay [5] and in assay [6] was over 30 µM each time. Besides, the AC50 in assay [7], in assay [8], in [9] and in assay [10] was over 30 µM throughout.
Consider `N=C(N)NCCCCCCC(=O)NC(O)C(=O)NCCCCNCCCN` (centres undefined), for which the AC50 in assay [1], in assay [2], in [3], in [4], in assay [5] and in assay [6] was over 30 µM each time. For the same molecule, the concentration at half-maximal activity (AC50) in assay [7], in assay [8], in [9] and in [10] was over 30 µM in each case.
For `COc1ccc(/C=C/C(=O)Nc2ccccc2C(=O)O)cc1OC`, the AC50 was over 30 µM in assay [1]; over 30 µM in [2]; over 30 µM in assay [3]; over 30 µM in [4]; 7.4 µM in assay [5]; over 30 µM in [6]. Besides, the AC50 in [7] was over 30 µM; in [8], over 30 µM; in assay [9] it was 24 µM; in assay [10], over 30 µM.
As for `NCCCC(O)(P(=O)(O)O)P(=O)(O)O` [ALENDRONIC ACID], the AC50 was over 10 µM in [1]; over 30 µM in assay [2]; over 10 µM in assay [3]; over 10 µM in assay [7]; over 10 µM in assay [8]; 1.09 µM in [9].
With `CO[C@@]1(NC(=O)Cc2cccs2)C(=O)N2C(C(=O)O)=C(COC(N)=O)CS[C@@H]21` [CEFOXITIN], the AC50 in assay [1], in assay [2], in [4], in assay [5], in assay [6] and in [7] was over 30 µM each time. In addition, the AC50 in assay [8], in assay [9] and in [10] was over 30 µM throughout.
`CCN(CC)CCOC(=O)c1ccc(N)cc1Cl` [CHLOROPROCAINE]: the AC50 in [1] was 11 µM; in assay [2] it was over 30 µM; in assay [4], 29 µM; in [5], over 30 µM; in assay [6], over 30 µM; in [7], over 30 µM. The AC50 in assay [8], in assay [9] and in assay [10] was over 30 µM in each case.
In the case of `COCCOC(=O)C1=C(C)NC(C)=C(C(=O)OC/C=C/c2ccccc2)C1c1cccc([N+](=O)[O-])c1` (centres undefined) [CILNIDIPINE], the AC50 in [1], in assay [2], in assay [4], in [5], in assay [6] and in [7] was over 30 µM in each case. The AC50 in assay [8], in [9] and in [10] was over 30 µM in each case.
As to `O=C(O)c1ccccc1OP(=O)(O)O` [FOSFOSAL], the AC50 in assay [1], in assay [2], in assay [4], in assay [5], in [6] and in assay [7] was over 30 µM in each case. The values for the AC50 in assay [8], in assay [9] and in assay [10] were over 30 µM, 9.8 µM and over 30 µM, respectively.
For the molecule `CCCC[C@H](C)C[C@H](O)/C=C/[C@H]1[C@H](O)CC(=O)[C@@H]1CCCC/C=C/C(=O)O` [LIMAPROST], the AC50 in assay [1], in [2], in assay [4], in assay [5], in assay [6] and in [7] was over 30 µM throughout. In addition, the AC50 in assay [8], in assay [9] and in assay [10] was over 30 µM each time.
For `Cc1ccc(NC(=O)C2(c3ccc4c(c3)OC(F)(F)O4)CC2)nc1-c1cccc(C(=O)O)c1` [LUMACAFTOR], the AC50 in assay [1], in assay [2], in assay [4], in assay [5], in assay [6] and in [7] was over 30 µM throughout. Moreover, the AC50 in [8], in [9] and in assay [10] was over 30 µM throughout.
Turning to `Cc1ccc(=O)n(-c2ccccc2)c1` [PIRFENIDONE], the AC50 in assay [1], in assay [2], in assay [4], in assay [5], in [6] and in [7] was over 30 µM in each case. Moreover, the AC50 in assay [8], in assay [9] and in assay [10] was over 30 µM throughout.
Regarding `CCCNC(C)C(=O)Nc1ccccc1C` (centres undefined) [PRILOCAINE], the AC50 in assay [1], in assay [2], in assay [4], in assay [5], in assay [6] and in assay [7] was over 30 µM in each case. In addition, the AC50 in [8], in assay [9] and in [10] was over 30 µM each time.
Take `CC(C)CC(N(C)C)C1(c2ccc(Cl)cc2)CCC1` (centres undefined) [SIBUTRAMINE]: the AC50 in assay [1] is over 30 µM; in assay [2] it was over 30 µM; in assay [3] it was over 10 µM; in assay [4], 19 µM; in assay [5] it was over 30 µM; in assay [7], over 10 µM. The molecule further yielded an AC50 in assay [9] of over 30 µM.
Consider `CN1c2ccccc2C(NCCCCCCC(=O)O)c2ccc(Cl)cc2S1(=O)=O` (centres undefined) [TIANEPTINE], for which the AC50 in assay [1], in [2], in assay [4], in assay [5], in assay [6] and in [7] was over 30 µM each time. Further, the AC50 in assay [8], in assay [9] and in assay [10] was over 30 µM throughout.
